The source of these data is EP0928784B1, “Sertraline polymorph having improved water solubility” (TORCAN CHEMICAL Ltd, priority 1997, dated 1999).

The nature of data set [1]: Solubility in aqueous fluids (qualitative, no method described). Format: physicochemical.
Data set [2] can be described thus: Stability of the crystalline form (qualitative, no method described). The note with it: applicant's statement. Format: physicochemical.
Data set [3] is described as follows: Dissolution rate (qualitative, no method described). The class given is physicochemical. Particulars: with regard to bioavailability in pharmaceutical formulations.
The conditions of data set [4]: as reported in U.S. Patent 5,248,699, among Forms I-V; cited from earlier work.

Structures can show the parent of a compound that is named as a salt. Where two headings read alike, the source gives them in different places.

As to `CN[C@H]1CC[C@@H](c2ccc(Cl)c(Cl)c2)c2ccccc21` [polymorph T1, (1S-cis)-4-(3,4-dichlorophenyl)-1,2,3,4-tetrahydro-N-methyl-1-naphthalenamine], the “solubility in aqueous fluids” value in data set [1] (as compared with Form I sertraline hydrochloride) is given as “enhanced solubility in aqueous fluids”. Besides, in data set [2], the stability result was “acceptable stability”.

Turning to `CN[C@H]1CC[C@@H](c2ccc(Cl)c(Cl)c2)c2ccccc21` [sertraline hydrochloride Form I, (1S-cis)-4-(3,4-dichlorophenyl)-1,2,3,4-tetrahydro-N-methyl-1-naphthalenamine], the solubility result in data set [1] (prepared in applicant's laboratory according to Sysko et al., aqueous fluids) is recorded as “extremely insoluble”. For the same molecule, the stability entry is “stable as reported” in data set [2] and “greatest stability” in data set [4]. Also, the dissolution rate result in data set [3] is “too slow to provide adequate bioavailability”.
